Test results as given in publication PMC6271530, “Design and Optimisation of Bioactive Cyclic Peptides: Generation of a Down-Regulator of TNF Secretion” (Molecules, 2014).
“Also recorded” adds a separate entry of the source.

Experiments:
[1] = tested on: CTB-stimulated J774A.1 cells; format: cell-based, murine
[2] = tested on: LPS-stimulated J774A.1 cells; assay: TNF secretion by LPS-stimulated J774A.1 cells; format: cell-based, murine; settings: for Change in level of secretion of TNF into the supernatant: LPS-stimulated J774A.1 cells, overnight exposure to cyclic peptide, TNF by sandwich ELISA, very high levels of TNF generated
[3] = tested on: cytokine activated T-cells (Tck) co-cultured with monocytes; assay: IL-1 levels in the cognate model; format: cell-based, human
Method: (§1) A methodology described by Brennan et al. was employed. Peripheral blood lymphocytes (>95%) are enriched by Centrifugal Elutriation from plateletphoresis blood cones. CD45RO^+ Tcells (>98% purity) isolated by negative selection (Miltenyi, Bisley, UK) are re-suspended to a density of 1 × 10^6 cells/mL in RPMI 1640 containing 10% heat-inactivated AB^+ Human Serum. Cytokines are added to the cells at the following concentrations, hIL-2 @25 ng/mL, hIL-6 @100 ng/mL and hTNFα @25 ng/mL, all purchased from Peprotech UK (London, UK). The cells are incubated at 37 °C, 5% CO2 for 8 d after which they are pelleted twice at 1500 rpm for 5 min, counted and then used in a cognate experiment.
(§2) A methodology described by Brennan et al. is employed as follows. Elutriation-enriched (>95%) autologous monocytes are cultured at 1 × 10^6 cells/mL (100 microlitres) in RPMI 1640 containing 5% heat-inactivated FCS, in a 96-well, round-bottomed culture plate. After adjusting the cell number, cytokine activated T-cells (Tck) are added to the monocytes at a 5:1 ratio, the peptides are then added into the appropriate wells, with a final volume of 200 μL/well. Cells are co-cultured at 37 °C, 5% CO2 for 18 h after which the supernatants are removed and assayed for cytokine production by ELISA.

[4] = tested on: cytokine activated T-cells (Tck) co-cultured with monocytes; assay: TNF secretion in T cell/monocyte co-culture (cognate assay); format: cell-based, human
Method: as §1, §2

[5] = Light scattering / homogeneity of the peptide preparation in aqueous medium; format: physicochemical; settings: peptide dissolved in HFIP or transcutol in the presence of β-hydroxypropyl cyclodextrin, then aqueous medium; all levels of cyclodextrin employed
From the text: In order to avoid problems with aggregation, which, it was feared, may affect the long-term stability of the product, a number of methodologies were employed to disperse the peptide prior to introduction into aqueous medium. Dissolution in HFIP, followed by drying down and addition of water worked reasonably well, as did dissolving in transcutol at high concentration, then adding to water. […] Detailed methodology is given in the Experimental section.

[6] = tested on: LPS-stimulated J774A.1 cells; assay: IL-6 secretion by LPS-stimulated J774A.1 cells; format: cell-based, murine; settings: different concentrations, formulated with cyclodextrin in the absence of transcutol
[7] = tested on: cytokine activated T-cells (Tck) co-cultured with monocytes; assay: IL-10 levels in the cognate model; format: cell-based, human
Method: as §1, §2

[8] = tested on: cells of the cytokine secretion experiments (replicates of each group); assay: MTT viability assay; format: cell-based; settings: MTT 4 h at 37 °C, read at 620 nm
Method: After removal of the supernatants 100 μL of RPMI 1640 is added to each well of the plate. 10 μL of MTT dye (stock 5 mg/mL) is added to each well and incubated for 4 h at 37 °C 5% CO2, the MTT crystals are dissolved with SDS after which the plates are read at 620 nm.

[9] = tested on: lymphocytes; assay: TNF secretion by lymphocytes; format: cell-based; settings: evidence to be presented separately
[10] = tested on: cytokine activated T-cells (Tck) co-cultured with monocytes; assay: IL-6 secretion in the cognate assay; format: cell-based, human; settings: cognate model; 10 and 1 μg/mL peptide, relative to corresponding vehicle controls; formulated with cyclodextrin in the absence of transcutol
Method: as §1, §2

Substance: cyclo(-DF-R-Nle-S-DF-R-Nle-S-) [Lex 2.3]
- Change in level of secretion of TNF into the supernatant [1]: insufficient

Substance: cyclo(-DF-R-Σ-S-DF-R-Σ-S-) [Lex 2.1]
- Change in level of secretion of TNF into the supernatant [1]: efficacy in terms of down-regulating the secretion of TNF

Substance: cyclo(-DF-S-Nle-R-DF-S-Nle-R-) [Lex 2.4]
- Change in level of secretion of TNF into the supernatant [1]: insufficient

Substance: cyclo(-DF-S-Σ-R-DF-S-Σ-R-) [Lex 2.2]
- Change in level of secretion of TNF into the supernatant [1]: efficacy in terms of down-regulating the secretion of TNF; also recorded: more efficacious

Substance: cyclo(DF-R-LC10-S-DF-R-LC10-S) [Lex 2.5]
- Change in level of secretion of TNF into the supernatant [2]: strongly dose-related stimulatory activity

Substance: cyclo(DF-S-LC10-R-DF-S-LC10-R) [Lex 2.6]
- Effect on levels of IL-1 [3]: No effect
- Effect on TNF secretion of cells in the cognate assay ([4]; 10 µg/mL, formulated with cyclodextrin in the presence of transcutol (panel a), 18 h co-culture, ELISA): inhibitory activity is seen clearly
- Inhibition of TNF secretion elicited by modified T-cell phenotype ([4]; summary statement): inhibits secretion of TNF
- Light scattering of the preparation (homogeneity) [5]: significant reduction in light scattering
- Effect on IL-6 secretion [6]: Clear dose-related inhibition of IL-6 secretion
- Change in level of secretion of TNF into the supernatant [1]: inhibits secretion of TNF
- Effect on levels of IL-10 [7]: No effect
- Cell metabolic activity (MTT test) [8]: no reduction in cell metabolic activity
- Effect on TNF secretion by lymphocytes [9]: no effect on secretion by lymphocytes
- Dependence of TNF down-regulating activity on cyclodextrin:peptide ratio ([2]; LPS-stimulated J774A.1 cells overnight, formulated with beta hydroxypropyl cyclodextrin at different weight ratios, down to 1.25 (molar ratio 1.3)): independent of the ratio of peptide to cyclodextrin
- Change in level of secretion of TNF into the supernatant [2]: most efficacious structure tested; also recorded: inhibits secretion of TNF
- Effect on IL-6 secretion [10]: reductions in IL-6 secretion
